{
  "source": "ChEMBL document CHEMBL2429792",
  "about": "“2D QSAR of heteroaryl-substituted propanolamines as antihypertensive agents” (2013)",
  "data": [
    {"species_on_record": "Rattus norvegicus", "assay": "Antihypertensive activity in rat assessed as inhibition of isoproterenol-induced tachycardia", "assay_type": "functional", "values": [
      {"smiles": "O=C(NCCNCC(O)COc1ccccc1)c1cc2ccccc2[nH]1", "note": "(stereo unspecified)", "log1/activity": 4.54},
      {"smiles": "O=C(NCCNCC(O)COc1cccc2c1OCCO2)Nc1ccccc1", "note": "(stereo unspecified)", "log1/activity": 4.58},
      {"smiles": "Cc1ccccc1OCC(O)CNCCNC(=O)c1ccco1", "note": "(stereo unspecified)", "log1/activity": 5.38},
      {"smiles": "O=C(NCCNCC(O)COc1cccc2sccc12)Nc1ccccc1", "note": "(stereo unspecified)", "log1/activity": 4.88},
      {"smiles": "COc1ccc2c(O)cc(CC(=O)NCCNCC(O)COc3ccccc3C#N)nc2c1", "note": "(stereo unspecified)", "log1/activity": 6.65},
      {"smiles": "N#Cc1ccccc1OCC(O)CNCCNC(=O)c1cc2ccccc2[nH]1", "note": "(stereo unspecified)", "log1/activity": 4.57},
      {"smiles": "O=C(NCCNCC(O)COc1ccccc1I)c1ccco1", "note": "(stereo unspecified)", "log1/activity": 5.27},
      {"smiles": "Nc1ccc(C(=O)NCCNCC(O)COc2cccc3c2OCCO3)cc1", "note": "(stereo unspecified)", "log1/activity": 5.5},
      {"smiles": "CC(C)C(=O)NCCNCC(O)COc1nccs1", "note": "(stereo unspecified)", "log1/activity": 5.91},
      {"smiles": "O=C(NCCNCC(O)COc1cccc2occc12)Nc1ccccc1", "note": "(stereo unspecified)", "log1/activity": 5.56},
      {"smiles": "NC(=O)c1ccccc1OCC(O)CNCCNC(=O)c1cccs1", "note": "(stereo unspecified)", "log1/activity": 4.78},
      {"smiles": "CC(C)C(=O)NCCNCC(O)COc1nsnc1N1CCOCC1", "note": "(stereo unspecified)", "log1/activity": 6.34},
      {"smiles": "O=C(NCCNCC(O)COc1ccccc1)c1ccco1", "note": "(stereo unspecified)", "log1/activity": 5.48},
      {"smiles": "N#Cc1ccccc1OCC(O)CNCCNC(=O)Cc1cccs1", "note": "(stereo unspecified)", "log1/activity": 6.95},
      {"smiles": "O=C(NCCNCC(O)COc1ccccc1O)C1CCCO1", "note": "(stereo unspecified)", "log1/activity": 5.16},
      {"smiles": "CC(C)NCC(O)COc1cccc2ccccc12", "note": "(stereo unspecified) [PROPRANOLOL]", "log1/activity": 6.11},
      {"smiles": "N#Cc1ccccc1OCC(O)CNCCNC(=O)Cc1c[nH]c2ccccc12", "note": "(stereo unspecified)", "log1/activity": 6.44},
      {"smiles": "CC(=O)c1ccc(C(=O)NCCNCC(O)COc2cccc3c2OCCO3)cc1", "note": "(stereo unspecified)", "log1/activity": 6.31},
      {"smiles": "Cc1cccc(OCC(O)CNCCNC(=O)c2ccco2)c1", "note": "(stereo unspecified)", "log1/activity": 4.9},
      {"smiles": "N#Cc1ccccc1OCC(O)CNCCNC(=O)Cc1csc(-c2ccc(Cl)cc2)n1", "note": "(stereo unspecified)", "log1/activity": 4.89},
      {"smiles": "N#Cc1ccccc1OCC(O)CNCCNC(=O)c1ccc2ccccc2n1", "note": "(stereo unspecified)", "log1/activity": 4.59},
      {"smiles": "O=C(NCCNCC(O)COc1ccccc1)c1cccs1", "note": "(stereo unspecified)", "log1/activity": 5.92},
      {"smiles": "Cc1cc(C(=O)NCCNCC(O)COc2ccccc2C#N)[nH]n1", "note": "(stereo unspecified)", "log1/activity": 4.78},
      {"smiles": "O=C(Cc1ccccc1)NCCNCC(O)COc1cccc2c1OCCO2", "note": "(stereo unspecified)", "log1/activity": 5.41},
      {"smiles": "O=C(NCCNCC(O)COc1cccc2c1OCCC2=O)Nc1ccccc1", "note": "(stereo unspecified)", "log1/activity": 4.83},
      {"smiles": "N#Cc1ccccc1OCC(O)CNCCNC(=O)c1ccco1", "note": "(stereo unspecified)", "log1/activity": 4.73},
      {"smiles": "CNC(=O)Nc1ccc(C(=O)NCCNCC(O)COc2cccc3c2OCCO3)cc1", "note": "(stereo unspecified)", "log1/activity": 7.34},
      {"smiles": "C=CCOc1ccccc1OCC(O)CNCCNC(=O)c1ccco1", "note": "(stereo unspecified)", "log1/activity": 5.07},
      {"smiles": "O=C(NCCNCC(O)COc1ccccc1)c1ccncc1", "note": "(stereo unspecified)", "log1/activity": 5.79},
      {"smiles": "O=C(NCCNCC(O)COc1cccc2ccccc12)c1ccco1", "note": "(stereo unspecified)", "log1/activity": 4.73},
      {"smiles": "CC(C)C(=O)NCCNCC(O)COc1cccc2nsnc12", "note": "(stereo unspecified)", "log1/activity": 4.52},
      {"smiles": "CC(C)C(=O)NCCNCC(O)COc1cccc2sccc12", "note": "(stereo unspecified)", "log1/activity": 5.82},
      {"smiles": "CC(=O)Nc1ccc(OCC(O)CNC(C)C)cc1", "note": "(stereo unspecified) [PRACTOLOL]", "log1/activity": 5.72},
      {"smiles": "CC(C)C(=O)NCCNCC(O)COc1cccc2[nH]ccc12", "note": "(stereo unspecified)", "log1/activity": 7.2},
      {"smiles": "O=C(NCCNCC(O)COc1cccc2c1OCCO2)c1ccc(O)cc1", "note": "(stereo unspecified)", "log1/activity": 6.41},
      {"smiles": "COc1cc(CC(=O)NCCNCC(O)COc2ccccc2C#N)nc(-c2ccc(Cl)cc2)n1", "note": "(stereo unspecified)", "log1/activity": 4.69}
    ]}
  ]
}
